Data on 14 compounds can be found in publication PMC6522510 (Nature Communications, 2019).

Where a name gives a salt, the structure may show the parent alone. Read-outs that look alike come from different tables or passages of the source.

Test systems include CMK; MOLM-13; M07e; CMS; MV4-11; U937; ML-2; CHRF288-11.
What all share (set-up): species or system AML cell lines (8); Primary HTS, single concentration about 10 uM, Cell Titer Glo viability; log10 luminescence, per cent inhibition relative to cycloheximide control
Common to all, as to conditions: 72 h, relative to cycloheximide control, log10 luminescence, inhibitor
For orientation: In ATP-based viability assays light output follows the ATP content of the culture.

Consider `CO[C@H]1/C=C/O[C@@]2(C)Oc3c(C)c(O)c4c(O)c(c(/C=N/N5CCN(C6CCCC6)CC5)c(O)c4c3C2=O)NC(=O)/C(C)=C\C=C\[C@H](C)[C@H](O)[C@@H](C)[C@@H](O)[C@@H](C)[C@H](OC(C)=O)[C@@H]1C` [SJ000556738-2, RIFAPENTINE], for which the CMK %inh in the assay on CMK (CMK %inh, 10 µM) is given as -1.103%. In addition, the MOLM-13 %inh in the assay on MOLM-13 (MOLM-13 %inh, 10 µM) is 7.481%. In the assay on M07e (M07e %inh, 10 µM), the M07e %inh was 2.598%. Moreover, the CMS %inh with CMS (CMS %inh, 10 µM) is 24.93%. The MV4-11 %inh in the assay with MV4-11 (MV4-11 %inh, 10 µM) is 5.68%. The U937 %inh with U937 (U937 %inh, 10 µM) is 26.01%. In the assay on ML-2 (ML-2 %inh, 10 µM), the ML-2 %inh was 7.469%. Further, the CHRF288-11 %inh in the assay with CHRF288-11 (CHRF288-11 %inh, 10 µM) is -2.807%.
With `C[C@@H]1C[C@H]2[C@@H]3C[C@H](F)C4=CC(=O)C=C[C@]4(C)[C@@]3(F)[C@@H](O)C[C@]2(C)[C@@]1(OC(=O)c1ccco1)C(=O)SCF` [SJ000556747-1, FLUTICASONE FUROATE], the CMK %inh with CMK amounted to 4.028%. Moreover, the MOLM-13 %inh in the assay on MOLM-13 amounted to 2.731%. Also, the M07e %inh in the assay with M07e came out at 0.03036%. In the assay with CMS, the CMS %inh is recorded as 42.17%. Further, the MV4-11 %inh with MV4-11 turned out to be 10.07%. The U937 %inh in the assay with U937 turned out to be 15.51%. In addition, in the assay on ML-2, the ML-2 %inh is 5.949%. Further, the CHRF288-11 %inh in the assay with CHRF288-11 is on record as 5.244%.
As to `Cc1c(F)c(N2CCNC(C)C2)cc2c1c(=O)c(C(=O)O)cn2C1CC1` (stereo not shown) [SJ000556748-1, GREPAFLOXACIN], the CMK %inh with CMK is reported as -2.149%. Moreover, in the assay on MOLM-13, the MOLM-13 %inh is 27.08%. In addition, the M07e %inh in the assay on M07e is given as -0.4769%. The CMS %inh in the assay on CMS is -1.062%. In the assay with MV4-11, the MV4-11 %inh is reported as -0.8156%. Further, in the assay with U937, the U937 %inh was found to be 0.03292%. The ML-2 %inh in the assay on ML-2 is -2.485%. Further, the CHRF288-11 %inh in the assay with CHRF288-11 stood at 7.335%.
Take `Nc1nc(=O)n([C@@H]2CS[C@H](CO)O2)cc1F` [SJ000556750-1, EMTRICITABINE]: in the assay on CMK, the CMK %inh was 2.775%. Further, in the assay on MOLM-13, the MOLM-13 %inh is on record as 20.59%. Besides, in the assay on M07e, the M07e %inh is -0.1929%. In the assay on CMS, the CMS %inh is given as -3.992%. In the assay with MV4-11, the MV4-11 %inh is listed as -2.268%. For the same compound, the U937 %inh in the assay with U937 was -2.394%. The ML-2 %inh with ML-2 stood at 2.01%. For the same compound, the CHRF288-11 %inh with CHRF288-11 stood at 2.371%.
With `CCOCCn1c(N2CCCN(C)CC2)nc2ccccc21` [SJ000556751-1, EMEDASTINE DIFUMARATE], the CMK %inh in the assay with CMK is given as -0.9686%. In addition, in the assay with MOLM-13, the MOLM-13 %inh is 8.131%. For the same compound, the M07e %inh in the assay on M07e is reported as 0.9271%. Further, the CMS %inh in the assay on CMS was -0.1534%. The MV4-11 %inh with MV4-11 was -1.235%. Also, the U937 %inh with U937 was determined as 0.3803%. Further, the ML-2 %inh in the assay on ML-2 is reported as 1.809%. Moreover, the CHRF288-11 %inh in the assay with CHRF288-11 is recorded as -0.4103%.
In the case of `CCCCc1ncc(/C=C(\Cc2cccs2)C(=O)O)n1Cc1ccc(C(=O)O)cc1` [SJ000556755-1, EPROSARTAN MESYLATE], the CMK %inh with CMK came to 1.513%. The MOLM-13 %inh in the assay with MOLM-13 is given as -0.5594%. Also, the M07e %inh in the assay on M07e stood at 2.786%. The CMS %inh with CMS was determined as 2.254%. Moreover, the MV4-11 %inh with MV4-11 is recorded as -5.649%. In the assay on U937, the U937 %inh came out at 2.452%. In addition, the ML-2 %inh in the assay with ML-2 was 1.173%. Further, the CHRF288-11 %inh in the assay with CHRF288-11 was determined as 1.693%.
Take `CO/N=C1\CN(c2nc3c(cc2F)c(=O)c(C(=O)O)cn3C2CC2)CC1CN` (stereo not shown) [SJ000556758-1, GEMIFLOXACIN MESILATE]: the CMK %inh in the assay on CMK came out at 10.74%. For the same compound, in the assay with MOLM-13, the MOLM-13 %inh is given as 8.66%. In the assay on M07e, the M07e %inh was 5.532%. Besides, the CMS %inh with CMS amounted to 4.675%. The MV4-11 %inh with MV4-11 was determined as 8.469%. Further, the U937 %inh with U937 came out at 9.491%. For the same compound, in the assay with ML-2, the ML-2 %inh came to 0.2536%. Besides, in the assay with CHRF288-11, the CHRF288-11 %inh was 4.811%.
Take `CCCCCCCN(CC)CCCC(O)c1ccc(NS(C)(=O)=O)cc1` (stereo not shown) [SJ000556760-1, IBUTILIDE FUMARATE]: the CMK %inh in the assay with CMK is reported as 2.977%. Besides, in the assay with MOLM-13, the MOLM-13 %inh was 2.626%. Further, the M07e %inh in the assay with M07e is given as 2.78%. Further, the CMS %inh with CMS was determined as 0.3403%. Also, the MV4-11 %inh in the assay on MV4-11 is 3.1%. Also, in the assay with U937, the U937 %inh worked out at 0.6889%. In addition, in the assay on ML-2, the ML-2 %inh is recorded as -1.379%. Also, the CHRF288-11 %inh with CHRF288-11 stood at 6.024%.
For `COC(C)(C)CCCC(C)C/C=C/C(C)=C/C(=O)O` (stereo not shown) [SJ000561041-1, METHOPRENE ACID], the CMK %inh in the assay with CMK worked out at 2.394%. Moreover, the MOLM-13 %inh in the assay with MOLM-13 is listed as -0.01315%. Further, the M07e %inh in the assay with M07e is -0.2291%. The CMS %inh with CMS is on record as -2.29%. Further, the MV4-11 %inh in the assay on MV4-11 is 6.95%. For the same compound, the U937 %inh in the assay on U937 came out at 1.555%. The ML-2 %inh with ML-2 is -0.2588%. Moreover, in the assay with CHRF288-11, the CHRF288-11 %inh came out at 30.54%.
Take `O=Cc1c2[nH]c3ccccc3c2cc2[nH]c3ccccc3c12` [SJ000561043-1, 6-FORMYLINDOLO [3,2-B] CARBAZOLE]: the CMK %inh in the assay on CMK turned out to be 0.1175%. For the same compound, the MOLM-13 %inh in the assay on MOLM-13 is given as 1.501%. Further, the M07e %inh with M07e stood at 3.515%. The CMS %inh in the assay on CMS was 2.828%. Further, in the assay with MV4-11, the MV4-11 %inh is listed as 15.88%. In the assay on U937, the U937 %inh is recorded as -0.0231%. Besides, the ML-2 %inh in the assay with ML-2 was 1.695%. Besides, the CHRF288-11 %inh with CHRF288-11 came to 8.34%.
Take `CC(C)(O)[C@H]1O[C@H]2CC[C@@]3(C)[C@@](O)(CC[C@H]4Cc5c([nH]c6ccccc56)[C@@]43C)C2=CC1=O` [SJ000561050-1, PAXILLINE]: in the assay on CMK, the CMK %inh was found to be 7.96%. Further, the MOLM-13 %inh in the assay with MOLM-13 was found to be 2.78%. For the same compound, the M07e %inh with M07e was -0.09318%. Moreover, in the assay with CMS, the CMS %inh is listed as 1.09%. For the same compound, in the assay on MV4-11, the MV4-11 %inh was determined as 1.599%. In addition, the U937 %inh in the assay on U937 worked out at 7.084%. In addition, the ML-2 %inh in the assay with ML-2 was found to be 3.934%. Moreover, the CHRF288-11 %inh in the assay with CHRF288-11 came out at 3.611%.
Turning to `CC(C)[C@@H](O)CC[C@@H](C)[C@H]1CC[C@H]2[C@@H]3CC=C4C[C@@H](O)CC[C@]4(C)[C@H]3CC[C@]12C` [SJ000561051-1, 24(S)-HYDROXYCHOLESTEROL], the CMK %inh in the assay with CMK is -0.3911%. Further, the MOLM-13 %inh with MOLM-13 was -1.323%. Besides, in the assay with M07e, the M07e %inh is given as -2.462%. For the same compound, in the assay on CMS, the CMS %inh is -2.331%. Further, the MV4-11 %inh in the assay with MV4-11 is given as -0.7822%. Also, in the assay with U937, the U937 %inh is -0.5103%. Also, the ML-2 %inh in the assay on ML-2 came to 0.6767%. Further, in the assay on CHRF288-11, the CHRF288-11 %inh is reported as -3.422%.
Regarding `C[C@H](CC[C@@H]1OC1(C)C)[C@H]1CC[C@H]2[C@@H]3CC=C4C[C@@H](O)CC[C@]4(C)[C@H]3CC[C@]12C` [SJ000561052-1, 24(S),25-EPOXYCHOLESTEROL], in the assay on CMK, the CMK %inh stood at 11.77%. The MOLM-13 %inh in the assay on MOLM-13 was -3.183%. Further, the M07e %inh in the assay with M07e is 0.1627%. In addition, the CMS %inh in the assay with CMS was found to be 1.576%. For the same compound, the MV4-11 %inh in the assay with MV4-11 was -1.379%. Also, the U937 %inh with U937 was -2.032%. For the same compound, in the assay on ML-2, the ML-2 %inh is given as -2.235%. Moreover, the CHRF288-11 %inh with CHRF288-11 turned out to be 7.379%.
Regarding `CC(C)=CCC[C@]1(C)[C@@H](CC=C(C)C)C[C@@]2(CC=C(C)C)C(=O)[C@]1(C(=O)C(C)C)C(=O)C(CC=C(C)C)=C2O` [SJ000561062-1, HYPERFORIN], in the assay on CMK, the CMK %inh is reported as 3.171%. Further, in the assay with MOLM-13, the MOLM-13 %inh worked out at 0.05204%. Also, the M07e %inh in the assay with M07e is 1.526%. Besides, the CMS %inh with CMS is -0.1771%. Also, the MV4-11 %inh in the assay on MV4-11 stood at 2.302%. Besides, the U937 %inh with U937 is recorded as 1.156%. Besides, in the assay on ML-2, the ML-2 %inh stood at 4.019%. Besides, the CHRF288-11 %inh in the assay on CHRF288-11 turned out to be 6.256%.
